From US20240376148A1, “MEDICAMENT FOR INHIBITING DIETARY OBESITY AND POLYPEPTIDE USED THEREFOR” (INSTITUTE OF ZOOLOGY, CHINESE ACADEMY OF SCIENCES, priority 2022, published 2024) come the findings set out here.

A short description of experiment [1]: SPF mice feeding experiment (high-fat diet). Type of experiment: in vivo, C57/B16J mice. Here is the method: C57/B16J mice were used in the SPF mice experiment. At the beginning of the experiment, C57/B16J mice were 4 weeks old, and each weighed 15±1 g. They were raised in a room with suitable temperature and humidity control, and the light/dark cycle was 12 hours, free diet and drinking water, and fed with standard laboratory feed (also known as growth and reproduction feed, item number SPFSLFZ003, product of SPF (Beijing) Experimental Animal Technology Co., Ltd.). After one week of adaptation, they were randomly assigned to a cage, 4-6 mice per cage.
A total of 12 treatments were set up, each with 2 cages of C57/B16J mice, and each treatment was subjected to different feeding treatments, specifically as follows:
NC group (i.e. normal diet group): fed with standard laboratory feed (also known as growth and reproduction feed, SPFSLFZ003), free diet and drinking water, each intragastrically administrated with 0.2 ml solvent daily for 8 weeks.
HFD group (i.e. high-fat diet group): fed with high-fat diet, the high-fat diet used was rodent feed (containing 60% fat, D12492, formula reference Le Roy, T., et al. Dysosmobacter welbionis is a newly isolated human commensal bacterium preventing diet-induced obesity and metabolic disorders in mice. Gut (2021).), free diet and drinking water, each intragastrically administrated with 0.2 ml solvent daily for 8 weeks.
D1 group (i.e. high-fat diet+D1 intragastric administration group): fed with high-fat diet, free diet and drinking water. Intragastrically administrated with synthetic D1, 0.75 mg-3 mg/Kg body weight, 0.2 ml, once/day for 8 weeks.
D2 group (i.e. high-fat diet+D2 intragastric administration group): fed with high-fat diet, free diet and drinking water. Intragastrically administrated with synthetic D2, 0.75 mg-3 mg/Kg body weight, 0.2 ml, once/day for 8 weeks.
D3 group (i.e. high-fat diet+D3 intragastric administration group): fed with high-fat diet, free diet and drinking water. Intragastrically administrated with synthetic D3, 0.75 mg-3 mg/Kg body weight, 0.2 ml, once/day for 8 weeks.
D4 group (i.e. high-fat diet+D4 intragastric administration group): fed with high-fat diet, free diet and drinking water. Intragastrically administrated with synthetic D4, 0.75 mg-3 mg/Kg body weight, 0.2 ml, once/day for 8 weeks.
D5 group (i.e. high-fat diet+D5 intragastric administration group): fed with high-fat diet, free diet and drinking water. Intragastrically administrated with synthetic D5, 0.75 mg-3 mg/Kg body weight, 0.2 ml, once/day for 8 weeks.
D6 group (i.e. high-fat diet+D6 intragastric administration group): fed with high-fat diet, free diet and drinking water. Intragastrically administrated with synthetic D6, 0.75 mg-3 mg/Kg body weight, 0.2 ml, once/day for 8 weeks.
D7 group (i.e. high-fat diet+D7 intragastric administration group): fed with high-fat diet, free diet and drinking water. Intragastrically administrated with synthetic D7, 0.75 mg-3 mg/Kg body weight, 0.2 ml, once/day for 8 weeks.
D8 group (i.e. high-fat diet+D8 intragastric administration group): fed with high-fat diet, free diet and drinking water. Intragastrically administrated with synthetic D8, 0.75 mg-3 mg/Kg body weight, 0.2 ml, once/day for 8 weeks.
D9 group (i.e. high-fat diet+D9 intragastric administration group): fed with high-fat diet, free diet and drinking water. Intragastrically administrated with synthetic D9, 0.75 mg-3 mg/Kg body weight, 0.2 ml, once/day for 8 weeks.
D10 group (i.e. high-fat diet+D10 intragastric administration group): fed with high-fat diet, free diet and drinking water. Intragastrically administrated with synthetic D10, 0.75 mg-3 mg/Kg body weight, 0.2 ml, once/day for 8 weeks.
The feed intake was tracked every week. After the experiment, the mice were weighed and photographs were taken to compare the body size of the mice. After that, the mice were killed by cervical dislocation. […]

Experiment [2] has as its system A. muciniphila. Description: qPCR of relative abundance of A. muciniphila in intestinal flora of SPF mice. Type of experiment: in vivo. As to conditions: p<0.05. Here is the method: In order to verify the changes in the relative abundance of A.muciniphila in the intestinal flora of mice fed with other HD, qPCR experiments were performed on the changes of intestinal flora in mice. Faecal bacterial DNA was extracted from the faeces of mice in the NC, HFD, D1, D2, D3, D5, D7, D8, D9 and D10 groups collected in the pre-SPF mice experiments and then the relative abundance of A. muciniphila was determined using qPCR.
(Real-time PCR tracks product formation cycle by cycle.)

The nature of experiment [3]: Rat feeding experiment (high-fat diet). Type of experiment: in vivo, Sprague Dawley (SD) rats. As to conditions: SD rats, 10 weeks. Here is the method:
Sprague Dawley (SD) rats were used in the rat experiment. At the beginning of the experiment, the rats were 4 weeks old, and each weighed 137±5 g. They were raised in a room with suitable temperature and humidity control, and the light/dark cycle was 12 hours, free diet and drinking water, and fed with standard laboratory feed (a growth and reproduction feed, SPFSLFZ003). After one week of adaptation, they were randomly assigned to a cage. HD treatment was represented by D3, a total of 3 treatments were set up, and each treatment was subjected to different feeding treatments, specifically as follows (see figure a of FIG. 7):
NC group (i.e. normal diet group): 8 rats were fed with standard laboratory feed (also known as growth and reproduction feed, SPFSLFZ003), free diet and drinking water for 10 weeks.
HFD group (i.e. high-fat diet group): 8 rats were fed with high-fat diet, the high-fat diet used was rodent feed (containing 60 kcal % fat, D12492), free diet and drinking water for 10 weeks.
D3 group (i.e. high-fat diet+D3 medicine intragastric administration group): 10 rats were fed with high-fat diet, free diet and drinking water. Intragastrically administrated with HD (choose D3), 0.5 mg-2 mg/Kg body weight, 0.5 ml, once/day for 10 weeks.
(§1) Body weights were monitored weekly. […]

The subject of experiment [4] is A. muciniphila. Description: qPCR of abundance of A. muciniphila in intestine of rats. Type of experiment: in vivo, Sprague Dawley (SD) rats. The settings on record: figure d of FIG. 7 (rats), p<0.05.
Description: FIGS. 7A-7H are a graph showing the effect of using D3 on rats and rhesus monkeys in Example 2 of the present invention. FIG. 7A is the schematic diagram of sampling time point in rats; FIG. 7B is the graph showing the results of the growth rate of body weight with different feeding treatments of the rat; FIG. 7C is the graph showing the results of the short-term feed intake measurement of the rat; FIG. 7D is the graph showing the results of the qPCR detection of the abundance of A. muciniphila in intestine of rats with different feeding treatment; FIG. 7E is a schematic diagram of the sampling time point in rhesus monkeys; FIG. 7F is the graph showing the results of the growth rate of body weight with different feeding treatments of rhesus monkeys; FIG. 7G is the feed intake monitoring graphs of rhesus monkeys with different feeding treatments; FIG. 7H is the graph showing the results of the qPCR detection of the abundance of A. muciniphila in intestine of rhesus monkeys with different feeding treatment. The data shown in the figure are mean±standard deviation, the number of repetitions is 5-10, and the significant difference of each group is analyzed by Wilcoxon test. * representing a significance analysis result of P<0.05, ** representing a significance analysis result of P<0.01.
as §1

A further experiment relates to UGN. Description: ELISA detection of serum UGN in macaques. Type of experiment: in vivo. The settings on record: macaque, not significant (p=0.06). Background: In an ELISA, binding on a coated surface is turned into a signal by an enzyme label.

In the case of RTRYCRTGR [D3], in experiment [1] (8 weeks), the “body size compared with the HFD group” value is “smaller than that of the HFD group”; the “subcutaneous and visceral fat weight (inguinal subcutaneous, epididymis, perirenal) vs HFD group” value is listed as “significantly lower than that of the HFD group”. Moreover, the “weekly feed intake vs control HFD group” value in experiment [1] (after 3-4 weeks) is “significant difference in feed intake”. Further, in experiment [1] (intragastric 0.75 mg-3 mg/Kg once/day, after 8 weeks), the “body weight decrease compared with the HFD group” value is recorded as 12.06%. Moreover, in the experiment on A. muciniphila [2], the “relative abundance of A. muciniphila in the intestinal flora by qPCR” value is “significantly increased”. In experiment [3] (vs HFD group), the “decrease of growth rate of body weight” value came to 8.96±3.11%. For the same sequence, the “body weight compared with the HFD group” value in experiment [3] (intragastric 0.5 mg-2 mg/Kg once/day) is “significantly lower than that of the HFD group”. Besides, the “relative abundance of A. muciniphila in the intestine by qPCR” value in the experiment on A. muciniphila [4] is on record as “significantly increased”. Also, the “UGN levels in the serum” value with UGN is “Increased”.
